These results are taken from patent US5858738A, “Ermophilane sesquiterpenoids as HIV intergrase inhibitors” (Merck & Co., Inc., priority 1997, dated 1999).

One assay addresses T1, HIV-1 integrase (Human immunodeficiency virus type 1 group M subtype B, UniProt P04585).
T1 construct: HIV-1 integrase
The experiment in a line: HIV Integrase Substrate Cleavage and Integration Assay (trimming of the 3' end of HIV long terminal repeat terminus). In kind it is biochemical. Particulars: inhibition of HIV integrase substrate cleavage; inhibitor 0.1 to 100 μM. The method, then: HIV Integrase Substrate Cleavage and Integration Assay
An assay for trimming of the 3' end of HIV long terminal repeat terminus by HIV-1 integrase was conducted according to LaFemina, R. L. et al., J. Virol 10, 5624 (1991), herein incorporated by reference for these purposes. To assay inhibition of HIV integrase substrate cleavage, the reaction was conducted with inhibitor having various concentrations in the range of 0.1 to 100 μM.

The target of a further assay is T2, HIV integrase (Human immunodeficiency virus type 1 group M subtype B, UniProt P04585).
T2 construct: strand transfer by HIV integrase
In words: Strand Transfer Assay for HIV Integrase (ligation of processed donor (HIV) DNA to nicked host DNA). In kind it is biochemical. Particulars: inhibition of strand transfer; inhibitor 0.1 to 100 μM. As for the experimental part:
Strand Transfer Assay for HIV Integrase
A microtiter assay for ligation of processed donor (HIV) DNA to unspecific, nicked host DNA was conducted according to Hazuda, D. J. et al., Nucl. Acids, Res. 22, 1121 (1994), herein incorporated by reference for these purposes. To assay inhibition of such strand transfer by HIV integrase, the reaction was conducted with inhibition having various concentrations in the range of 0.1 to 100 μM.

In assay [1] the target is T3, HIV Integrase/donor (HIV) DNA complexes (Human immunodeficiency virus type 1 group M subtype B, UniProt P04585).
T3 construct: strand transfer by HIV integrase
The experiment in a line: Assay for Assembly of HIV Integrase/donor (HIV) DNA Complexes. Particulars: inhibition of assembly or binding to immobilized donor (HIV) DNA; inhibitor 0.1 to 100 μM. As for the experimental part: Assay for Assembly of HIV Integrase/donor (HIV) DNA Complexes
An assay measuring the binding of HIV Integrase to immobilized donor (HIV) DNA was conducted according to Wolfe, A. L. et al., J. Virol. 70, 1424 (1996), herein incorporated by reference for these purposes. To assay inhibition of such assembly or binding, the reaction was conducted with inhibitor having various concentrations in the range of 0.1 to 100 μM. Results follow.

As for `C=C(C=O)C1CC2(C)C(=CC1=O)C(OC(=O)C(C)=CC(C)CCCC)CCC2C(=O)O` (stereo not drawn) [Compound A], the concentration for half-maximal inhibition (IC50) at HIV-1 integrase was 5 to 10 µM; on HIV integrase it was 5 to 10 µM; in assay [1], 10 µM.
